Results on one molecule are retold here after patent US6113907A, “Pharmaceutical grade St. John's Wort” (priority 1997, dated 2000).

The test system of data set [1] is benzodiazepine receptor (BDZ). The data set is described as follows: benzodiazepine receptor (BDZ), [3H] PK11195, rat kidney membranes. Format: binding. Conditions: 10^-4; 60 min, 100 µM. The method, then:
Fourteen additional bioassays were preformed on either extracts, fractions or reference compounds for this botanical. To measure inhibition of [^3 H] PK11195 to the benzodiazepine receptor (BDZ) a partially purified receptor preparation was made from rat kidney membranes. The final radioactive ligand concentration was 1 nM and non-specific binding was measured using 200 nM cold PK11195. The substances, receptor and ligand were reacted in 50 mM Tris-HCL (pH 7.7) at 0-4° C. for 60 minutes. The reaction was terminated by rapid filtration of the samples through glass fiber filters. […] The inhibition of [^3 H] pinrenzepine to the muscarinic M1 receptor (M1) by the substances was measured using a partially purified receptor from bovine striatal membranes. The final hot ligand concentration was 1 nM and non-specific binding was determined in the presence of 100 nM atropine. […] The reactions were terminated by rapid vacuum filtration of the reaction mixture through glass fiber filters. […] To assay for biological activity for the muscarinic receptor for the central nervous system, receptor was partially purified from rat cortical membranes. […] Non-specific binding was determined in the presence of 100 nM atropine. […] Non-specific binding was determined using 1 mM NMDA. […] Non-specific binding was determined using 100 μM AMPA.

Data set [2] deals with MAOB. The data set is described as follows: NIMH/NovaScreen screen, MAOB. Format: biochemical. Conditions: up to 0.1 mM. The method, then: Through an NIMH screening contract (NovaScreen™, Baltimore, Md.) a commercially available crude extract from the fresh flowers and buds of Hypericum perforatum [1:1.5; hydro-alcohol (40:60) made from flowering tops; Herb Pharm] containing ~0.1% hypericin was dried under vacuum, dissolved in 4% DMSO, and diluted to an initial concentration of 50 mg/ml for in vitro screening in a battery of 39 receptor assays and two enzyme systems (Table 5, below).

Data set [3] deals with murine cytomegalovirus. Particulars: cited from earlier work.
Data set [4] has as its system GABAA receptor. The data set is described as follows: GABAA agonist site binding assay, [3H]-GABA, bovine cerebellar membranes. Conditions: 10^-4 M. Here is the method: The reference literature compounds for this assay include diazepam and muscimol (Sigma Chemical Company).
The reaction is terminated by rapid vacuum filtration onto glass fiber filters. Radioactivity trapped onto the filters is determined and compared to control values in order to ascertain any interactions of test compound with the GABAA receptor.

Data set [5] has as its system herpes simplex. Particulars: cited from earlier work.
The target in data set [6] is T1, serotonin transporter (Rattus norvegicus, UniProt P31652).
T1 construct: Cerebral cortical membranes derived from male Wistar rats; from tissue; host or cells: cerebral cortical membranes of male Wistar rats
T1 sequence (P31652 whole entry): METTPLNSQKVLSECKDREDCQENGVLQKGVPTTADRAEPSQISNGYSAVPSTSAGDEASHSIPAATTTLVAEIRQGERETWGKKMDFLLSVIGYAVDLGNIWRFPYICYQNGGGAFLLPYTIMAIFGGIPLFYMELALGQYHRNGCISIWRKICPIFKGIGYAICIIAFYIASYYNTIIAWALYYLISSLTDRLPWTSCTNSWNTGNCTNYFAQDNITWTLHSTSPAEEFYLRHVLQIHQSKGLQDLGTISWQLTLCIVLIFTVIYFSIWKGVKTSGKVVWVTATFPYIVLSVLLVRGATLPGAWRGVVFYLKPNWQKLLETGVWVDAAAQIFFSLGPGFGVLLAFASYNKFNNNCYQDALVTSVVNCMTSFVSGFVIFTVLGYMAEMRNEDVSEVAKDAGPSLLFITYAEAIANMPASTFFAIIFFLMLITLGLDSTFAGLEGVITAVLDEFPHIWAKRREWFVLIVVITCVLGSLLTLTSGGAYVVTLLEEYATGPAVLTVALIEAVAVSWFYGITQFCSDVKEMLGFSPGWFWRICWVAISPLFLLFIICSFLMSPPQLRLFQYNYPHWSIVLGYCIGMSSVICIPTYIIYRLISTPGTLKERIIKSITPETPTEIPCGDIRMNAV
The data set is described as follows: serotonin transporter assay, [125I]-RTI-121, rat cerebral cortical membranes. The data set is classed as binding.

Data set [7] in a line: stability. Format: physicochemical. Conditions: our data. From the text: Some botanicals, such as St. John's Wort, are both temperature and light sensitive. For this type of botanical the material should be dry packed with a refrigerant or shipped under refrigeration and protected from light and air. […] Stability (in absence of air) was increased to six months in a preparation extracted with ethanol.
Phloroglucinola include hyperforin (prenylated derivative of phloroglucinol), adhyperforin (similar to the bitter principle of hops, adhumulone).

In data set [8] the test system is glioma cells. Conditions: tissue culture; cited from earlier work.
Data set [9] deals with MAO. Conditions: cited from earlier work.
Data set [10] relates to Receptor tyrosine kinase of epidermal growth factor. Conditions: cited from earlier work.
Data set [11] addresses T2, muscarinic M1 receptor (Bos taurus, UniProt F1N5C5).
T2 construct: Using receptors derived from bovine striatal membranes; from tissue; host or cells: bovine striatal membranes
The data set is described as follows: muscarinic M1 binding, [3H]-Pirenzepine, bovine striatal membranes. Particulars: read-out: MuscM1 Binding % inhibition (PharmaPrint range).

In data set [12] the target is T3, MAOA (Rattus norvegicus, UniProt P21396).
T3 sequence (P21396 1-526): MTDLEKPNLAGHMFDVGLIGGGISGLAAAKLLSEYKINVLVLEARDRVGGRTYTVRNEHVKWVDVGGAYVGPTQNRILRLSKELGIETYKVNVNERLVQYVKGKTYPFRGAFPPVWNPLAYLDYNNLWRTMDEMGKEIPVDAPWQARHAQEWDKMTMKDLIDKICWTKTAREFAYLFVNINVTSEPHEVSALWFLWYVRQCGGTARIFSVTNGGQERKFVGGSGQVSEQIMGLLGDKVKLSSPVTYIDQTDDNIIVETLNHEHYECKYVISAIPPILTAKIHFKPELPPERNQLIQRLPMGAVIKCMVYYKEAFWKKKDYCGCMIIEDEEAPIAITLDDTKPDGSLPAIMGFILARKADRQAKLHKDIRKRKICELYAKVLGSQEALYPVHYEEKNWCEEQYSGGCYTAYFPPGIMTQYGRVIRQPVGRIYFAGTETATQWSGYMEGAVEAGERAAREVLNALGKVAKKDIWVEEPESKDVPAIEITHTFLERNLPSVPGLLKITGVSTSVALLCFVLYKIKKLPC
The data set is described as follows: NIMH/NovaScreen screen, MAOA. Format: biochemical.

Read-outs that look alike come from different tables or passages of the source.

T2 sequence (F1N5C5 1-460): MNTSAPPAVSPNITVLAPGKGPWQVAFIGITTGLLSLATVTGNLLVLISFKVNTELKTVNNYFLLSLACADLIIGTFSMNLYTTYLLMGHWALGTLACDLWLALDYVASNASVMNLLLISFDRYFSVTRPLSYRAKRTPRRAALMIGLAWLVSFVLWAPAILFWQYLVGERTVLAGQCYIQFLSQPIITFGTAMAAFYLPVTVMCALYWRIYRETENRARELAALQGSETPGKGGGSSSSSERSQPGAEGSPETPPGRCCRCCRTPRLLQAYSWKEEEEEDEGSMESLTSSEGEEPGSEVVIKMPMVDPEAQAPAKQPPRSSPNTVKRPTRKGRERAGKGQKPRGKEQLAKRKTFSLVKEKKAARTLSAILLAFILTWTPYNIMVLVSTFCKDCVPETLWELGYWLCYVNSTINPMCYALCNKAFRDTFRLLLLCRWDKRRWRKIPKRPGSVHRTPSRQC

`Cc1cc(O)c2c(=O)c3c(O)cc(O)c4c5c(O)cc(O)c6c(=O)c7c(O)cc(C)c8c1c2c(c34)c(c78)c65` [Hypericin, hypericin] displayed a BDZ in data set [1] of 33%. For the same molecule, in data set [2], the “MAO-B inhibition” value is reported as “lacked significant MAOA or MAO-^B inhibition”. The “activity against murine cytomegalovirus” value in [3] is “Activity has also been reported”. The “GABAA % inhibition (PharmaPrint range)” value in data set [4] was 30 ± 15%. Also, the “inhibition of herpes simplex” value in data set [5] was “inhibit”. In addition, the inhibition at 100 µM in data set [6] (10^-4, read-out: Sero) came out at 51%; in data set [6] (10^-4 M, read-out: Sero % inhibition (PharmaPrint range)) it was 51 ± 2%; in [11] it was 80 ± 20%; in data set [12] (100 μM), 20.8%. The IC50 in data set [6] (read-out: Sero (concentration)) came out at 4 µM. Moreover, in data set [7], the stability in solution result is “unstable in solution”. In addition, in [8], the “growth of glioma cells” value is recorded as “inhibit the growth of glioma cells”. Further, the “concentration inhibiting MAO” value in data set [9] (Suzuki et al., 80% purity) is 50 µg/mL. The “confirmation of MAO inhibition” value in data set [9] was “failed to confirm this effect”. The “receptor tyrosine kinase activity of epidermal growth factor” value in data set [10] is given as “inhibited”. In [12] (10 μM), this molecule yielded an inhibition at 10 µM of 27%. The “MAOA inhibition” value in data set [12] (up to 0.1 mM) is on record as “lacked significant MAOA or MAO-^B inhibition”.
